Test results reported in article PMC9551036, “A selective and orally bioavailable VHL-recruiting PROTAC achieves SMARCA2 degradation in vivo” (Nature Communications, 2022).
“And” between values parts separate entries of the source, which are not always exact repeats. Identical values can stand only once. Like-named read-outs stand apart in the source and are kept apart here.

How the values were obtained:
[1] = target: T1, PBRM1 BD (Homo sapiens, UniProt Q86U86); experiment: TR-FRET binary and ternary (PROTAC + VCB) affinity, PBRM1 bromodomain; assay type: binding; conditions: individual replicates
T1 construct: GST (TEV site) (N); made in house; host or cells: Escherichia coli BL21(DE3)

[2] = target: T2, (Homo sapiens, UniProt P51532); experiment: TR-FRET ternary complex affinity and cooperativity, SMARCA4; assay type: binding
T2 construct: P51532, residues 1448–1569 with additional N-terminal SM residues; GST (TEV site) (N); His6 (TEV site) (N, cleaved yes); made in house; host or cells: SMARCA4^BD: Escherichia coli BL21(DE3)
T2 sequence (P51532 1448-1569): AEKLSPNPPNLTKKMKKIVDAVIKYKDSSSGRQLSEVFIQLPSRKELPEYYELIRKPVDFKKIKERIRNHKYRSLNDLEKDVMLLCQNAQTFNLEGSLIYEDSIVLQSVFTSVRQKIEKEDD

[3] = tested on: NCI-H1568 cells; experiment: Cell viability assay (CellTiter Glo) in NCI-H1568; assay type: cell-based, human; conditions: for EC50: read-out: EC50 cell proliferation (CellTiter Glo); for IC50: NCI-H1568, (18h), CellTiter Glo, individual replicates, read-out: NCI-H1568 (18h) CTG
Experimental: 500–2000 cells were seeded in white, clear bottom 96-well plates (Corning or Perkin Elmer) in 180–200 µl medium per well. The next day, compounds were added using a digital dispenser and a T0 sample was measured for reference. […], and viability (luminescence) was measured using CellTiter Glo or CellTiter Glo 2.0 (Promega) according to manufacturer’s instructions after equilibrating cells and reagents at room temperature and 10–20 min incubation time while shaking.

[4] = target: SMARCA4 (Homo sapiens, UniProt P51532); experiment: SMARCA4 capillary electrophoresis protein assay in RKO cells; assay type: cell-based; design: endogenous in cells; host or cells: RKO, HCT116, LU99, HCC-364, HCT-15, HCC4006, SK-N-AS; conditions: mean ± SD; for Dmax: RKO
SMARCA4, sequence (P51532 whole entry): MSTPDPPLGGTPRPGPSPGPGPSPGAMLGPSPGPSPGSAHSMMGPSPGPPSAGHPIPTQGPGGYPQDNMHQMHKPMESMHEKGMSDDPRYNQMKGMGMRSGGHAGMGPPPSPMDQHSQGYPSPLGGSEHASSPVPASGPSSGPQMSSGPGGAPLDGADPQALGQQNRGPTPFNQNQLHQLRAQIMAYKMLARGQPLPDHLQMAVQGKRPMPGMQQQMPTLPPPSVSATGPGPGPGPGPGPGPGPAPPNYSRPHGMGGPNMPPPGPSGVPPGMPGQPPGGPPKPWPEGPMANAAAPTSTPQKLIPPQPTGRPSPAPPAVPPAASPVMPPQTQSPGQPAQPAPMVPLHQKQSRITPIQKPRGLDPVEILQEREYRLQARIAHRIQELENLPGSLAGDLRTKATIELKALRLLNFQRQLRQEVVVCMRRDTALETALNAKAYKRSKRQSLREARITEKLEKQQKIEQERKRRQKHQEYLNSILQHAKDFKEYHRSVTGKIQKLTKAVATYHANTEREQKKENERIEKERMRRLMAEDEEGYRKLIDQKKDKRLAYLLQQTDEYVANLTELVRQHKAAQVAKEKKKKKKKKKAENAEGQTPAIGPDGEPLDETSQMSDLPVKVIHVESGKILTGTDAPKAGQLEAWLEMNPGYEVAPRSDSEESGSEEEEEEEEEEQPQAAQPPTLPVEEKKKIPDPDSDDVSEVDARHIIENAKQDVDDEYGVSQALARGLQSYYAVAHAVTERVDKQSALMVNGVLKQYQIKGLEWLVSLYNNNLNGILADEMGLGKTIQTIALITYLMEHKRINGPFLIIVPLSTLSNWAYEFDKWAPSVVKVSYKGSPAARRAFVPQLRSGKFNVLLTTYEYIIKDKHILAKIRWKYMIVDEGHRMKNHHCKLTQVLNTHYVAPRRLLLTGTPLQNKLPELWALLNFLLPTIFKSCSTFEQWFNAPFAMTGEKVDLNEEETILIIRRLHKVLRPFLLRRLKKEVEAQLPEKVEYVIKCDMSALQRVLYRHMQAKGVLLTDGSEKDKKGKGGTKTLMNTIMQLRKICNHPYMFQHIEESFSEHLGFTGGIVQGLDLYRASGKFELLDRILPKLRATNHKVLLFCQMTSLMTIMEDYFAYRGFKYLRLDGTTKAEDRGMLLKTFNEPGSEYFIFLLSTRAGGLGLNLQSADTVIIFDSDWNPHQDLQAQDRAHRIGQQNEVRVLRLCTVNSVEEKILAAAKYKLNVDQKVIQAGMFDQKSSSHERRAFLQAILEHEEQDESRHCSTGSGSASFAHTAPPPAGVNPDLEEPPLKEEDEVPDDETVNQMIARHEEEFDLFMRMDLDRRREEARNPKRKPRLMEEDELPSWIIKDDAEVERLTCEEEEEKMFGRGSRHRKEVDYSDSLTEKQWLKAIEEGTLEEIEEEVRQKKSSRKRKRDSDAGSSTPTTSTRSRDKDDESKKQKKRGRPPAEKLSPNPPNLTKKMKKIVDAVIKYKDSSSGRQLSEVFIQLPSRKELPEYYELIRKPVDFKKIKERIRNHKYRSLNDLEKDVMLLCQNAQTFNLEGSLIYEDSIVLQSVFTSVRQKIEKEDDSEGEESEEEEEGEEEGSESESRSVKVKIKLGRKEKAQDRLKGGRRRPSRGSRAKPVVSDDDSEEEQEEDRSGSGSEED
Experimental: 130,000–200,000 cells were seeded in 24-well plates and incubated until settled down or overnight. Compounds were dissolved in DMSO and added to cells in indicated concentrations using a digital dispenser following an optional media change. Cells were incubated for 4 or 18 h as indicated. For SMARCA2/4 half-life determination, 150,000 or 200,000 cells were seeded in 24-well plates. The next day, 50 µg/ml cycloheximide (Sigma) was added and cells were incubated for 1–24 h. For SMARCA2/4 re-synthesis measurements, 200,000 cells were seeded in 24-well plates. The next day, 100 nM compound 6 was added for 4 h to degrade SMARCA2/4, and a sample was taken as baseline for normalisation. To allow re-synthesis, a VHL binder (compound 32, 25 or 50 µM) was then added for 3 or 24 h. Medium was removed, cells were washed with PBS and lysed with 80 µl Lysis Buffer (MSD Tris Lysis Buffer (#R60TX-2) + Halt Inhibitor Cocktail (100x) + Benzonase 0.5 µL/ml). Samples were frozen at −80 °C and thawed at room temperature before use. Samples were transferred to a V-bottom plate and insoluble debris was pelleted by centrifugation for 5 min at maximum speed. The supernatant was transferred to a fresh plate. Master Mix and Ladder were prepared according to manufacturer’s instructions for 12–230 kDa Wes Separation Module, 8 × 25 capillary cartridges, Protein Simple #SM-W004 with Anti-Rabbit Detection Module for Wes, Peggy Sue or Sally Sue, Protein Simple #DM-001. 4.8 µl lysate were mixed with 1.2 µl Master Mix to achieve a protein concentration of ~0.5 µg/µl. Antibodies were diluted in Antibody Diluent II (SMARCA2 Sigma #HPA029981 RRID:AB_10602406 1:25–100, SMARCA4 Cell Signalling #49360 clone D1Q7F RRID:AB_2728743 1:15–120 or Abcam #ab110641 clone EPNCIR111A RRID:AB_10861578 1:60, GAPDH Abcam #ab9485 RRID:AB_307275 1:250). Wes plates were prepared and run according to manufacturer’s instructions. Proteins were quantified with accompanying Compass Software. SMARCA2/4 protein levels were normalised to GAPDH. […] Where applicable, curves were fitted using a 4-parametric logistic model.

[5] = target: VCB: PROTAC: SMARCA2^BD ternary complex (Homo sapiens, UniProt P40337+P51531); experiment: TR-FRET ternary complex affinity and cooperativity, SMARCA2; assay type: binding; design: P51531-2, residues 1373-1493 with additional N-terminal SM residues; GST (TEV site) (N); His6 (TEV site) (N, cleaved yes); made in house; host or cells: SMARCA2^BD: Escherichia coli BL21(DE3)
VCB: PROTAC: SMARCA2^BD ternary complex (Homo sapiens, UniProt P40337+P51531), sequence (P51531 with tags, fused parts or gaps isoform P51531-2): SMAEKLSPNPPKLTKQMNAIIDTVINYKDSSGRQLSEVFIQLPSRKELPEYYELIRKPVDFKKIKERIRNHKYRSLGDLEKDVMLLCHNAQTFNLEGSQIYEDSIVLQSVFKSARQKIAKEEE
VCB: PROTAC: SMARCA2^BD ternary complex (Homo sapiens, UniProt P40337+P51531), sequence (P40337 54-213): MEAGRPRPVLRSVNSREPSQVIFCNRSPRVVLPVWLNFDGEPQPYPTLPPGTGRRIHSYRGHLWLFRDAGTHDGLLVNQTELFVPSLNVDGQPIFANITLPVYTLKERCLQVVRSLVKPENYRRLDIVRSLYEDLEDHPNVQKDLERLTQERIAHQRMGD
VCB: PROTAC: SMARCA2^BD ternary complex (Homo sapiens, UniProt P40337+P51531), sequence (Q15369 17-112 partner): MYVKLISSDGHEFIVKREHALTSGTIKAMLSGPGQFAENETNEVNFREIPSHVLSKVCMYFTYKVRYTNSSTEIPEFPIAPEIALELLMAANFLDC
VCB: PROTAC: SMARCA2^BD ternary complex (Homo sapiens, UniProt P40337+P51531), sequence (Q15370 1-104 partner): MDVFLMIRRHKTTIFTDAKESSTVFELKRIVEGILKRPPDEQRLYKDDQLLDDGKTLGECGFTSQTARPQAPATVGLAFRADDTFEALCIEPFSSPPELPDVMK

[6] = target: T3, VCB: PROTAC: SMARCA2^BD ternary complex (Homo sapiens, UniProt P51531); experiment: as above; assay type: binding
T3 construct: P51531-2, residues 1373-1493 with additional N-terminal SM residues; GST (TEV site) (N); His6 (TEV site) (N, cleaved yes); made in house; host or cells: SMARCA2^BD: Escherichia coli BL21(DE3)
T3 sequence (P51531 with tags, fused parts or gaps isoform P51531-2): as the sequence (P51531 with tags, fused parts or gaps isoform P51531-2) above

[7] = PROTAC + VCB, read-out: Ternary PBRM1 BD EC50 (PROTAC + VCB)
[8] = binary, PROTAC alone, read-out: PBRM1 EC50
[9] = TR-FRET competition for SMARCA4BD, without VCB, mean ± SD, read-out: TR-FRET SMARCA4BD EC50
[10] = binary, PROTAC alone, individual replicates, read-out: SMARCA4 BD EC50
[11] = PROTAC + VCB, individual replicates, read-out: Ternary SMARCA2 BD EC50 (PROTAC + VCB)
[12] = TR-FRET competition for SMARCA2BD, + VCB, mean ± SD, read-out: TR-FRET Ternary SMARCA2BD EC50 (PROTAC + VCB)
[13] = TR-FRET competition for SMARCA2BD, without VCB, mean ± SD, read-out: TR-FRET SMARCA2BD EC50
[14] = binary, PROTAC alone, individual replicates, read-out: SMARCA2 BD EC50

SMILES | EC50 [1, 7] | EC50 [1, 8] | EC50 [2, 9] | EC50 [2, 10] | EC50 ([3]; Homo sapiens, NCI-H1568, […]) | IC50 [3] | DC50 ([4]; RKO (4 h)) | DC50 ([4]; RKO (18 h)) | Dmax ([4]; RKO (4 h)) | Dmax ([4]; RKO (18 h)) | EC50 [5, 11] | EC50 [5, 12] | EC50 [6, 13] | EC50 [6, 14] | EC50 ([3]; NCI-H1568 ([…]), mean ± SD) | SMARCA4 Dmax ([4]; RKO (4 h)) | SMARCA4 Dmax ([4]; RKO (18 h))
Cc1ncsc1-c1ccc([C@H](CCCCCN2CCC(c3ccc4c(c3)n(C3CCCC3)c3nc(=O)c5c(Br)cccc5n43)CC2)NC(=O)[C@@H]2C[C@@H](O)CN2C(=O)[C@@H](NC(=O)C2(F)CC2)C(C)(C)C)cc1 [compound 11] | 3.17 nM and 4.26 nM and 3.96 nM | 43.1 nM and 50 nM and 41.1 nM and 31.5 nM | 279 ± 40 nM | 241 nM and 322 nM and 280 nM | 7 ± 3 nM | 8.72 nM and 10.4 nM and 5.64 nM and 9.09 nM and 2.95 nM and 6.31 nM | 15 ± 9 nM | 12 ± 3 nM | 53 ± 16% | 78 ± 11% | 26.6 nM and 19.7 nM and 14.3 nM and 29.6 nM and 31.9 nM and 31.5 nM and 26.3 nM and 35.9 nM and 20.9 nM and 21.5 nM and 24.4 nM | 25 ± 6 nM | 123 ± 45 nM | 183 nM and 73.1 nM and 107 nM and > 400 nM and 65.7 nM and 113 nM and 145 nM and 121 nM and 105 nM and 125 nM and 146 nM and 228 nM and 144 nM | – | – | –
Cc1ncsc1-c1ccc(CNC(=O)[C@@H]2C[C@@H](O)CN2C(=O)[C@@H](NC(=O)C2(F)CC2)C(C)(C)C)c(OCCOCCOCCN2CCC(c3ccc4c(c3)n(C3CCCC3)c3nc(=O)c5c(Br)cccc5n43)CC2)c1 [compound 21] | 33.9 nM and 37.8 nM and 41.4 nM | 71.9 nM and 80.2 nM and 77.4 nM | 520 ± 73 nM | 443 nM and 585 nM and 542 nM | – | 257 nM and 199 nM and 216 nM | 21 ± 19 nM | 83 ± 78 nM | – | – | 138 nM and 122 nM and 143 nM | 134 ± 11 nM | 255 ± 9 nM | 246 nM and 264 nM and 255 nM | 223 ± 30 nM | 61 ± 16% | 75 ± 3%
